Measurements from paper PMC11288027, “Exploring novel microbial metabolites and drugs for inhibiting Clostridioides difficile” (mSphere, 2024).
≈ marks a conversion by molar mass, not a printed value. Counter-ions that a name gives are not always drawn. Like-named read-outs stand apart in the source and are kept apart here. Each block holds one compound with its values, some of them ahead of it.

Tests used:
[1] = system: C. difficile clinical isolates; assay: MIC against a panel of 20 C. difficile clinical isolates (broth microdilution); type: cell-based, Clostridioides difficile; settings: Clostridioides difficile; for MIC50: concentration that inhibited 50% of the 20 C. difficile clinical isolates
B. fragilis = assay: MIC against human gut microbiota; type: cell-based, Bacteroides fragilis; settings: for MIC: Bacteroides fragilis, read-out: minimum inhibitory concentration (MIC)
B. dorei = assay: MIC against human gut microbiota; type: cell-based, Bacteroides dorei; settings: Phocaeicola dorei, read-out: minimum inhibitory concentration (MIC)
Bif. breve = assay: MIC against human gut microbiota; type: cell-based, Bifidobacterium breve; settings: Bifidobacterium breve
Bif. angulatum = assay: MIC against human gut microbiota; type: cell-based, Bifidobacterium angulatum; settings: Bifidobacterium angulatum, read-out: minimum inhibitory concentration (MIC)
Bif. adolescentis = assay: MIC against human gut microbiota; type: cell-based, Bifidobacterium adolescentis; settings: Bifidobacterium adolescentis, read-out: minimum inhibitory concentration (MIC)
Bif. longum = assay: MIC against human gut microbiota; type: cell-based, Bifidobacterium longum; settings: Bifidobacterium longum, read-out: minimum inhibitory concentration (MIC)
E. faecium = assay: MIC against human gut microbiota; type: cell-based, Enterococcus faecium; settings: Enterococcus faecium, read-out: minimum inhibitory concentration (MIC)
E. fecalis = assay: MIC against human gut microbiota; type: cell-based, Enterococcus faecalis; settings: Enterococcus faecalis, read-out: minimum inhibitory concentration (MIC)
L. casei = assay: MIC against human gut microbiota; type: cell-based; settings: Lacticaseibacillus casei
L. brevis = assay: MIC against human gut microbiota; type: cell-based, Lactobacillus brevis; settings: Levilactobacillus brevis
L. rhamanosus = assay: MIC against human gut microbiota; type: cell-based, Lactobacillus rhamnoosus; settings: Lactobacillus
[2] = system: C. difficile ATCC BAA-1870; assay: Time-kill assay at 5 × MIC; settings: C. difficile ATCC BAA-1870, ~10^6 CFU/mL, up to 24 h
[3] = system: C. difficile ATCC BAA-1870; assay: MIC of active hits by broth microdilution; settings: Clostridioides difficile, ATCCBAA1870, 48 h

SMILES: CN[C@H](CC(C)C)C(=O)N[C@H]1C(=O)N[C@@H](CC(N)=O)C(=O)N[C@H]2C(=O)N[C@H]3C(=O)N[C@H](C(=O)N[C@H](C(=O)O)c4cc(O)cc(O)c4-c4cc3ccc4O)[C@H](O)c3ccc(c(Cl)c3)Oc3cc2cc(c3O[C@@H]2O[C@H](CO)[C@@H](O)[C@H](O)[C@H]2O[C@H]2C[C@](C)(N)[C@H](O)[C@H](C)O2)Oc2ccc(cc2Cl)[C@H]1O [Vancomycin, vancomycin hydrochloride]
MIC90 [1]: 2 µg/mL
MIC50 ([1]; 48 h): 0.5 µg/mL
MIC ([1]; ATCC630, read-out: minimum inhibitory concentration (MIC), C. difficile ATCC 630): 0.25 µg/mL
MIC ([1]; ATCC43255, read-out: minimum inhibitory concentration (MIC), C. difficile ATCC 43255): 0.25 µg/mL
MIC ([1]; ATCCBAA1870, read-out: minimum inhibitory concentration (MIC), C. difficile ATCC BAA-1870 (Ribotype-027), purchased compounds, panel test): 1 µg/mL
MIC ([1]; read-out: minimum inhibitory concentration (MIC), C. difficile CD-1 (Ribotype-027)): 2 µg/mL
MIC ([1]; read-out: minimum inhibitory concentration (MIC), C. difficile CD-6 (Ribotype-027)): 2 µg/mL
MIC ([1]; read-out: minimum inhibitory concentration (MIC), C. difficile CD-10(Ribotype-027)): 2 µg/mL
MIC ([1]; read-out: minimum inhibitory concentration (MIC), C. difficile CD-12): 1 µg/mL
MIC ([1]; read-out: minimum inhibitory concentration (MIC), C. difficile CD-13): 0.5 µg/mL
MIC ([1]; read-out: minimum inhibitory concentration (MIC), C. difficile CD-15): 0.5 µg/mL
MIC ([1]; read-out: minimum inhibitory concentration (MIC), C. difficile CD-22): 0.5 µg/mL
MIC ([1]; read-out: minimum inhibitory concentration (MIC), C. difficile CD-23): 0.25 µg/mL
MIC ([1]; read-out: minimum inhibitory concentration (MIC), C. difficile CD-24): 0.25 µg/mL
MIC ([1]; read-out: minimum inhibitory concentration (MIC), C. difficile CD-26 (Ribotype-027)): 1 µg/mL
MIC ([1]; read-out: minimum inhibitory concentration (MIC), C. difficile CD-28): 0.5 µg/mL
MIC ([1]; read-out: minimum inhibitory concentration (MIC), C. difficile CD-29 (Ribotype-027)): 1 µg/mL
MIC ([1]; read-out: minimum inhibitory concentration (MIC), C. difficile CD-30): 0.5 µg/mL
MIC ([1]; read-out: minimum inhibitory concentration (MIC), C. difficile NR-49302): 0.5 µg/mL
MIC ([1]; read-out: minimum inhibitory concentration (MIC), C. difficile NR-49304): 0.5 µg/mL
MIC ([1]; read-out: minimum inhibitory concentration (MIC), C. difficile NR-49308): 0.5 µg/mL
MIC ([1]; read-out: minimum inhibitory concentration (MIC), C. difficile NR-49319): 0.5 µg/mL
MIC50 [1]: 0.5 µg/mL
minimum inhibitory concentration (MIC) (B. fragilis): 32 µg/mL
MIC (B. fragilis): 16 µg/mL
MIC (B. dorei): 16 µg/mL
MIC (Bif. breve; ATCC15700, read-out: minimum inhibitory concentration (MIC)): ≤ 2 µg/mL
MIC (Bif. angulatum): ≤ 2 µg/mL
MIC (Bif. adolescentis): ≤ 2 µg/mL
MIC (Bif. longum): ≤ 2 µg/mL
MIC (E. faecium): ≤ 2 µg/mL
MIC (E. fecalis): > 256 µg/mL
MIC (L. casei; ATCC334, read-out: minimum inhibitory concentration (MIC)): > 256 µg/mL
MIC (L. brevis; ATCC14864, read-out: minimum inhibitory concentration (MIC)): > 256 µg/mL
MIC (L. rhamanosus; ATCC53103, read-out: minimum inhibitory concentration (MIC)): > 256 µg/mL
time to eliminate / clear C. difficile [2]: ≤ 24 h
MIC [3]: 1 µg/mL

MIC50 ([1]; 48 h, read-out: MIC50): 0.015 µg/mL (≈ 0.0142 µM)
MIC ([1]; ATCC630, C. difficile ATCC 630, read-out: minimum inhibitory concentration (MIC)): ≤ 0.0078 µg/mL
MIC ([1]; ATCC43255, C. difficile ATCC 43255, read-out: minimum inhibitory concentration (MIC)): 0.03 µg/mL (≈ 0.0284 µM)
MIC ([1]; ATCCBAA1870, C. difficile ATCC BAA-1870 (Ribotype-027), purchased compounds, panel test, read-out: minimum inhibitory concentration (MIC)): ≤ 0.0078 µg/mL
MIC ([1]; C. difficile CD-1 (Ribotype-027), read-out: minimum inhibitory concentration (MIC)): 0.06 µg/mL (≈ 0.0567 µM)
MIC ([1]; C. difficile CD-6 (Ribotype-027), read-out: minimum inhibitory concentration (MIC)): 0.06 µg/mL (≈ 0.0567 µM)
MIC ([1]; C. difficile CD-10(Ribotype-027), read-out: minimum inhibitory concentration (MIC)): 0.03 µg/mL (≈ 0.0284 µM)
MIC ([1]; C. difficile CD-12, read-out: minimum inhibitory concentration (MIC)): 0.03 µg/mL (≈ 0.0284 µM)
MIC ([1]; C. difficile CD-13, read-out: minimum inhibitory concentration (MIC)): ≤ 0.0078 µg/mL
MIC ([1]; C. difficile CD-15, read-out: minimum inhibitory concentration (MIC)): 0.015 µg/mL (≈ 0.0142 µM)
MIC ([1]; C. difficile CD-22, read-out: minimum inhibitory concentration (MIC)): ≤ 0.0078 µg/mL
MIC ([1]; C. difficile CD-23, read-out: minimum inhibitory concentration (MIC)): 0.06 µg/mL (≈ 0.0567 µM)
MIC ([1]; C. difficile CD-24, read-out: minimum inhibitory concentration (MIC)): ≤ 0.0078 µg/mL
MIC ([1]; C. difficile CD-26 (Ribotype-027), read-out: minimum inhibitory concentration (MIC)): 0.06 µg/mL (≈ 0.0567 µM)
MIC ([1]; C. difficile CD-28, read-out: minimum inhibitory concentration (MIC)): 0.015 µg/mL (≈ 0.0142 µM)
MIC ([1]; C. difficile CD-29 (Ribotype-027), read-out: minimum inhibitory concentration (MIC)): ≤ 0.0078 µg/mL
MIC ([1]; C. difficile CD-30, read-out: minimum inhibitory concentration (MIC)): 0.015 µg/mL (≈ 0.0142 µM)
MIC ([1]; C. difficile NR-49302, read-out: minimum inhibitory concentration (MIC)): 0.03 µg/mL (≈ 0.0284 µM)
MIC ([1]; C. difficile NR-49304, read-out: minimum inhibitory concentration (MIC)): ≤ 0.0078 µg/mL
MIC ([1]; C. difficile NR-49308, read-out: minimum inhibitory concentration (MIC)): ≤ 0.0078 µg/mL
MIC ([1]; C. difficile NR-49319, read-out: minimum inhibitory concentration (MIC)): 0.03 µg/mL (≈ 0.0284 µM)
MIC50 ([1]; read-out: MIC50): 0.015 µg/mL (≈ 0.0142 µM)
MIC90 ([1]; concentration that inhibited 90% of the 20 C. difficile clinical isolates, read-out: MIC90): 0.06 µg/mL (≈ 0.0567 µM)
MIC (B. fragilis; B. fragilis HM- 709, BHIS broth, anaerobic): > 256 µg/mL
MIC (B. fragilis; B. fragilis HM- 718, BHIS broth, anaerobic): > 256 µg/mL
MIC (B. dorei; B. dorei HM- 719, BHIS broth, anaerobic): > 256 µg/mL
MIC (Bif. breve; ATCC15700, Bif. breve ATCC 15700, BHIS broth, anaerobic, read-out: minimum inhibitory concentration (MIC)): ≤ 2 µg/mL
MIC (Bif. angulatum; Bif. angulatum HM- 1189, BHIS broth, anaerobic): ≤ 2 µg/mL
MIC (Bif. adolescentis; Bif. adolescentis HM- 633, BHIS broth, anaerobic): ≤ 2 µg/mL
MIC (Bif. longum; Bif. longum HM- 845, BHIS broth, anaerobic): ≤ 2 µg/mL
MIC (Bif. longum; Bif. longum HM- 846, BHIS broth, anaerobic): ≤ 2 µg/mL
MIC (Bif. longum; Bif. longum HM- 847, BHIS broth, anaerobic): ≤ 2 µg/mL
MIC (Bif. longum; Bif. longum HM- 848, BHIS broth, anaerobic): ≤ 2 µg/mL
MIC (E. faecium; E. faecium HM-202, TSB, aerobic): ≤ 2 µg/mL
MIC (E. fecalis; E. fecalis HM-970, TSB, aerobic): ≤ 2 µg/mL
MIC (L. casei; ATCC334, L. casei ATCC 334, MRS broth, 5% CO2, read-out: minimum inhibitory concentration (MIC)): 8 µg/mL (≈ 7.56 µM)
MIC (L. brevis; ATCC14864, L. brevis ATCC-14864, MRS broth, 5% CO2, read-out: minimum inhibitory concentration (MIC)): 64 µg/mL (≈ 60.5 µM)
MIC (L. rhamanosus; ATCC53103, L. rhamanosus ATCC-53103, MRS broth, 5% CO2, read-out: minimum inhibitory concentration (MIC)): 8 µg/mL (≈ 7.56 µM)
MIC ([3]; C. difficile ATCC BAA-1870, 48 h anaerobic): ≤ 0.0078 µg/mL
SMILES: CCc1c(Cl)c(O)c(Cl)c(O)c1C(=O)O[C@H]1[C@H](O)[C@H](OC)[C@H](OC/C2=C\C=C\C[C@H](O)/C(C)=C/[C@H](CC)[C@@H](O[C@@H]3OC(C)(C)[C@@H](OC(=O)C(C)C)[C@H](O)[C@@H]3O)/C(C)=C/C(C)=C/C[C@@H]([C@@H](C)O)OC2=O)O[C@@H]1C [Fidaxomicin]
time to eliminate / clear C. difficile [2]: ≤ 24 h
